What is called IC50 is the concentration at which inhibition is half-maximal.

Here are results for ten molecules from article PMC10141076, “Steroids and Fatty Acid Esters from Cyperus sexangularis Leaf and Their Antioxidant, Anti-Inflammatory and Anti-Elastase Properties” (Molecules, 2023).

Molecules are shown by their SMILES. Several values for one entry are separate records, joined by “and”; a condition that tells them apart may be missing. Equal values may be shown once. Marks after values point to notes of the source that are not given here.

A short description of experiment [1]: DPPH spectrophotometric assay (radical scavenging). The note with it: mean ± SEM, n = 3; 30 min, 37 °C, 515 nm. Here is the method: This was performed by following a previously reported conventional method, with some modifications. Here, 0.5 mL of 0.1Mm DPPH radical in methanol was added to 0.5 mL of serially diluted CS-isolated compounds and L-ascorbic acid at 100.00, 50.00, 25.00, 12.50 and 6.25 µg/mL concentration range in triplicate. The reaction mixture was incubated in the dark at 37 °C for 30 min. The absorbance was measured at 515 nm on a microplate reader. The percentage inhibition of the radical was calculated thus: % DPPH inhibition=(ABScontrol−ABSsample/ABScontrol)×100 where ABSsample = Absorbance of test sample, while ABScontrol = Absorbance of negative control (2% DMSO).

Experiment [2] can be described thus: Nitric oxide (NO) inhibition assay (sodium nitroprusside/Griess). Conditions: mean ± SEM, n = 3; 540 nm. Here is the method: The inhibitory effect of the isolated compounds against the NO radical was investigated using the method described by Jimoh et al.. The compounds were prepared in varying concentrations from 100.00–6.25 µg/mL. They were added to 0.2 Mm (2 mL) of sodium nitroprusside in triplicates.
(The Griess reaction detects nitrite, a stable product of nitric oxide.)

Experiment [3] can be described thus: Ferric reducing antioxidant power (FRAP) assay. Conditions: ascorbic acid equivalent; mean ± SEM, n = 3; 700 nm. Here is the method: The reducing antioxidant capacity of each isolated compound was evaluated according to the method of Kumar and Pandey, with some modifications. The compounds were dissolved in 2% DMSO and added to the mixture containing 0.25 mL of phosphate buffer (0.2 M; pH 6.6) and 0.25 mL of potassium ferricyanide [K3Fe(CN)6] (1% w/v). Standard compounds used were L (+)-Ascorbic acid. The resulting mixture was incubated at 50 °C for 20 min, followed by the addition of 0.25 mL of CCl3COOH (10% w/v) and then centrifuged at 3000 rpm for 10 min. The upper layer of the solution was mixed with 1 mL of 2% DMSO and the same amount and 0.5 mL of FeCl3 (0.1%, w/v). The experiment was conducted in triplicate, and absorbance was measured at 700 nm on a microplate reader against a blank sample of only phosphate buffer. Thus, the ferric reducing power of the isolated compounds at 100.00, 50.00, 25.00, 12.50 and 6.25 µg/mL concentration in methanol were determined as ascorbic acid equivalent (AAE) from the calibration curve of the positive control (L-ascorbic acid).

The subject of experiment [4] is egg albumin. In words: In vitro anti-inflammatory test: egg albumin denaturation (EAD) assay. Type of experiment: biochemical, chicken. Here is the method:
The test was carried out using the egg albumin denaturation assay method reported by Chatterjee et al.. […] The mixture was incubated at 37 °C for 15 min away from direct light and thereafter boiled at 70 °C for 5 min in a thermostatic water bath. The resulting mixture was cooled, and the absorbance was measured at 655 nm on a microplate reader.

Experiment [5] has as its target T1, porcine pancreatic elastase (PPE) (Sus scrofa, UniProt P00772).
T1 construct: purchased Sigma
In words: Anti-elastase assay (release of p-nitroaniline from N-succinyl-ala-ala-ala-p-nitroanilide). The note with it: n = 3; text says elastase in HaCaT cells, method uses PPE; read-out: Anti-Elastase Activity (IC50 ± SD) (converted). The format is biochemical. Here is the method:
All reagents, solvents, silica gel for TLC and silica gel for column chromatography were purchased from Sigma-Aldrich (Pty) Ltd. (Johannesburg, South Africa) and Merck (Pty) Ltd. (Johannesburg, South Africa) through a licenced local supplier, Shalom Laboratories and Supplies, South Africa. Antioxidant absorbance were measured on a 680-Bio-Rad Microplate Reader (Serial Number 14966, Irvine, CA, USA), while the anti-elastase activity was monitored on a Perkin Elmer VICTOR Nivo microplate reader ([…]). Isolated compounds were analyzed with a 600 MHz Bruker Biospin GmbH spectrometer (Bruker, Rheinstetten, Germany) and a 400 MHz VARIAN NMR spectrometer (Agilent Technologies Inc., Santa Clara, CA, USA). Chemical shift (δ) was recorded in part per million (ppm). The spectrum range was set at 0–14 ppm for 1H NMR, while that of ^13C NMR was set at 0–220 ppm. Tetramethyl silane was used as the internal standard and compounds were read in deuterated chloroform and benzene, as well as benzene-d6 in trifluorotoluene (TFT). High-resolution mass spectrometry (HRMS) was performed with a Waters API Q-TOF Ultima spectrometer (Waters Corporation, Manchester, UK) situated in Stellenbosch University, Stellenbosch, South Africa. […]
The ability of each isolated compound to inhibit porcine pancreatic elastase (PPE) (Sigma) was determined by measuring the release of p-nitroaniline from N-succinyl-ala-ala-ala-p-nitroanilide spectrophotometrically at 405nm according to the method of Bieth et al. and modified according to the method of Fibrich et al.. The reaction mixture contained 100mM Tris buffer (pH 8.0), 0.5M HCl; the test sample was serially diluted in DMSO to yield seven concentrations ([…]) to which PPE ([…]) was added and incubated for 15 min, followed by the addition of N-succinyl-ala-ala-ala-p-nitroanilide (4mM). The change in the absorbance of the reaction mixture was measured for 15 min, from which the rate was obtained. One unit of elastastolytic activity is defined as the release of 1 µM of p-nitroaniline/min. Ursolic acid was included as the positive drug control, as well as a vehicle control containing 2% DMSO and two negative controls (one in which no enzyme was added and the other in which no substrate was added). An IC50, or concentration at which 50% of the enzyme activity is inhibited was calculated using GraphPad Prism 4 (GraphPad Software, San Diego, CA, USA).

T1 sequence (P00772 27-266): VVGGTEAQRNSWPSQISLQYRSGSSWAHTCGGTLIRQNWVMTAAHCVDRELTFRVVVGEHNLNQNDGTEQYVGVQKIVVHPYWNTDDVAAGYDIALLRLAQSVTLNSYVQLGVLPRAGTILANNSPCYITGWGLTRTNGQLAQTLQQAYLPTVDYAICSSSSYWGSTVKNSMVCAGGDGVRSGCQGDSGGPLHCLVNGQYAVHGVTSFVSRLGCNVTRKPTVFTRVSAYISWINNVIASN

`O=C1O[C@H]([C@@H](O)CO)C(O)=C1O` [ASC, L-ascorbic acid, reference compound]: in experiment [1], the “DPPH (IC50 ± SEM)” value is given as 8.92 ± 1.26 ^a µg/mL. For the same molecule, the “NO (IC50 ± SEM)” value in experiment [2] was 21.89 ± 1.32 ^a µg/mL.
Turning to `CC[C@H](C=C[C@@H](C)[C@H]1CC[C@H]2[C@@H]3CC=C4CC(O)CC[C@]4(C)[C@H]3CC[C@]12C)C(C)C` (stereo partly shown) [Compound 1, stigmasta-5,22-dien-3-ol], the FRAP in experiment [3] is 303.58 ± 10.33 µgAAE/mg and 303.58 ± 10.33 ^c µgAAE/mg. Further, the “DPPH (IC50 ± SEM)” value in experiment [1] is given as 38.18 ± 2.30 ^bc µg/mL. For the same molecule, the “NO (IC50 ± SEM)” value in experiment [2] is 68.56 ± 4.03 ^bc µg/mL. Also, the “inhibition of egg albumin denaturation” value in experiment [4] (at 6.25 µg/mL (lowest concentration)) is 51.03 ± 10.36%; in experiment [4] (at 6.25 µg/mL (lowest concentration), listed as stigmasterol) it was 50%; in experiment [4] (at 25 µg/mL (median concentration)), “up to 70%”. Besides, the IC50 in experiment [5] was above 121 µM.
As for `C=CC(C)C1CCC2C1CCC1C3CCCCC3CCC12` (stereo not shown) [Compound 2, 17-(1-methyl-allyl)-hexadecahydro-cyclopenta[a] phenanthrene], the FRAP in experiment [3] was 196.21 ± 13.79 ^a µgAAE/mg. In addition, the “DPPH (IC50 ± SEM)” value in experiment [1] is 57.63 ± 1.62 ^e µg/mL. Also, in experiment [2], the “NO (IC50 ± SEM)” value is 105.73 ± 7.48 ^d µg/mL. Moreover, the “inhibition of egg albumin denaturation, rank in words” value in experiment [4] (across all concentrations (100–6.25 µg/mL), p < 0.05) is reported as “least active among all the compounds tested”. The IC50 in experiment [5] was above 349 µM.
Turning to `CC[C@H](CC[C@@H](C)[C@H]1CC[C@H]2[C@@H]3CC=C4C[C@@H](O)CC[C@]4(C)[C@H]3CC[C@]12C)C(C)C` [Compound 3, β-sitosterol], in experiment [5], the IC50 is above 121 µM.
With `CCCCCCCCCCCC(=O)O` [Compound 4, dodecanoic acid], the FRAP in experiment [3] is reported as 245.94 ± 22.81 ^b µgAAE/mg. The “DPPH (IC50 ± SEM)” value in experiment [1] was 35.99 ± 2.13 ^b µg/mL. Besides, the “NO (IC50 ± SEM)” value in experiment [2] is on record as 65.04 ± 3.20 ^b µg/mL. For the same molecule, in experiment [5], the IC50 was above 250 µM.
On the same counts, the results for `CCCCCCCCCCCCCCCCCCC(=O)OCC` [Compound 5, ethyl nonadecanoate] are 243.40 ± 19.72 ^b µgAAE/mg, 43.82 ± 1.44 ^c µg/mL, 69.74 ± 3.06 ^bc µg/mL and at least 153 µM.
`CCCCCCCCCCCCCCCCCC(=O)OCC` [Compound 6, ethyl stearate]: the FRAP in experiment [3] is 190.92 ± 11.68 ^a µgAAE/mg. In addition, the “DPPH (IC50 ± SEM)” value in experiment [1] was 49.86 ± 2.29 ^d µg/mL. Moreover, in experiment [2], the “NO (IC50 ± SEM)” value is reported as 95.99 ± 4.93 ^d µg/mL. Further, the “inhibition of egg albumin denaturation, rank in words” value in experiment [4] (at concentrations above 6.25 µg/mL) is “least activity among the fatty acid compounds”. In addition, in experiment [5], the IC50 was at least 160 µM.
As for `C[C@H]1[C@H](C)CC[C@]2(C(=O)O)CC[C@]3(C)C(=CC[C@@H]4[C@@]5(C)CC[C@H](O)C(C)(C)[C@@H]5CC[C@]43C)[C@H]12` [Ursolic acid, ursolic acid, reference compound], the IC50 in experiment [5] is 54.3 µM.
The same measure, in the same setting: the result for `CCCCCCCCCCCCCCCCCCC(=O)OCC` [ethyl nonadecanoate] reads above 153 µM; that for `CCCCCCCCCCCCCCCCCC(=O)OCC` [ethyl stearate], above 160 µM.
